According to US20260048051A1, “TREATMENT OF INFLAMMATORY BOWEL DISEASE” (Atomwise Inc., priority 2024, published 2026):

Columns and labels:
[1] = Mouse plasma pharmacokinetics, PO 5 mg/kg; assay type: in vivo
Description: The following example describes the methods used to evaluate the pharmacokinetics of TYK2 inhibitors in vivo following dosing of a compound of the invention.
The pharmacokinetics of test compounds were evaluated in either male CD-1 mice or male C57BL/6 mice when administered by oral gavage and IV bolus injection. The animals were allowed free access to food and water before administration. The plasma samples were analyzed by LC-MS/MS and the concentration of test compound at each time point was determined by linear regression. Pharmacokinetic parameters were calculated from the plasma concentrations by non-compartmental modeling using WinNonlin 8.2.
Oral composition. To prepare a pharmaceutical composition for oral delivery, the test articles described herein were dissolved in DMSO and then mixed with necessary volume of PEG400 followed by […] in water or 50% Kolliphor HS 15 in saline to provide the final concentrations of 0.5 mg/mL or 1 mg/mL (Table 8). The resultant mixtures were suitable for oral administration.
The PK parameters measured in mouse plasma after treatment with TYK2 inhibitor compounds via PO (oral administration) at 5 mg/kg are summarized below in Tables 9-11.

IL-6 induced pSTAT3 = IL-6 induced pSTAT3 assay in TF-1 cells; assay type: cell-based; details: Homo sapiens, read-out: Cellular selectivity (IL-6/pSTAT3)
Description: The following example describes the IL-6 induced pSTAT3 assay used to determine the cellular selectivity (IL-6/pSTAT3) of the TYK2 inhibitors.
TF-1 (ATCC®, CRL-2003™) cells were cultured in RPMI 1640 Medium, with GlutaMAX™ Supplement, HEPES for Cell Culture (Life Technologies, 72400047), 10% Fetal Bovine Serum (Life Technologies, 26400044), 2 ng/mL human recombinant GM-CSF (Life Technologies, PHC2013), 1 mM Sodium pyruvate (Life Technologies, 11360039), 1% MEM NEAA (Life Technologies, 11140-035), 1% Penicillin/Streptomycin (Life Technologies, 15140-122).
TF-1 (70×10^6) cells were starved overnight in T150 flasks (Opti-MEM™ I Reduced Serum Medium, no phenol red (Life Technologies, 11058-021), 1 mM Na pyruvate (Life Technologies, 11360039), 1% MEM NEAA (Life Technologies, 11140-035), and 1% Penicillin/Streptomycin (Life Technologies, 15140-122)) then seeded into 96-well TPP plates (150 000 cell/well) and incubated with test compounds (Final Concentration [nM]10000-0.05) for 30 minutes at 37° C. […] Stimulation was terminated by addition of lysis buffer (MSD K150SVD) and pSTAT3 detection was measured with Phospho-STAT3 (Tyr705) Kit MSD K150SVD)) according to manufacturer's instruction. Briefly, cell lysates were added to pre-blocked plates, sealed, and shake for 1 hour at room temperature. Plates were then washed and incubated with detection antibody for 1 hour at room temperature. After washing, Read Buffer was added, and plates were read on MSD instrument (Model 1300 MSD Quickplex SQ120).

GM-CSF induced pSTAT5 = GM-CSF induced pSTAT5 assay in CellSensor irf1-bla TF-1 cells; assay type: cell-based; details: GM-CSF 1 ng/mL; for IC50: Homo sapiens, read-out: Cellular selectivity (GM-CSF induced pSTAT5)
Description: The CellSensor irfl-bla TF-1 cell line (LifeTechnologies, K1657) was cultured in RPMI 1640 Medium (Invitrogen 72400-047), 10% Fetal Bovine Serum (Invitrogen, 26400044), 1 mM Sodium pyruvate (Life Technologies, 11360039), 1% MEM NEAA (Life Technologies, 11140-035), 2 ng/ml of human recombinant GM-CSF (Fisher, PHC2015), 1% Penicillin/Streptomycin (Life Technologies, 15140-122) and 5 µg/ml of Blasticidin (ThermoFisher, A1113903).
The cell line was seeded in a T75 flask at 13×10^6 cells/50 mL in starvation medium (Opti-MEM™ I Reduced Serum Medium, no phenol red (Life Technologies, 11058-021), 1 mM Na pyruvate (Life Technologies, 11360039), 1% MEM NEAA (Life Technologies, 11140-035), and 1% Penicillin/Streptomycin (Life Technologies, 15140-122)) for 16 hours at 37° C. under 5% CO2 the day before the assay.
For the assay, CellSensor irfl-bla TF-1 cells were seeded at 30 000 cells/32 μL (starvation medium)/well in a 384-well plate.
Compounds were added on the cells in 4 μL (starvation medium)/well at 10× the final concentration. They were incubated for 30 minutes at 37° C.
Human recombinant carrier-free GM-CSF (ThermoFisher, ref PHC2015) was added to the wells in 4 μL (starvation medium)/well at 10×. The final concentration was 1 ng/mL. Control wells without GM-CSF treatment were added. Plates were incubated for 5 hours at 37° C.
6× LiveBlazer-FRET substrate (Invitrogen, K1085) was added to the wells at 8 μL/well. The substrate was prepared shortly before use by mixing 6 μL of solution A and 60 μL of solution B to 934 μL of solution C. Plates were incubated for 2.5 hours at room temperature in the dark. The plates were read on an Envision (Perkin Elmer) with an excitation at a wavelength of 409 nm and two wavelengths for the emission 520 nm and 450 nm. The ratio between the […] emission was used to calculate the IC50s.
The IC50 for the inhibition of pSTAT5 was calculated with the XLfit software using the 4 Parameter Logistic Model or Sigmoidal Dose-Response Model (model 205).

TYK2-JH2 = target: T1, TYK2-JH2 (Homo sapiens, UniProt P29597); test: TYK2-JH2 HTRF binding assay (ligand efficiency); details: calculated from binding-assay IC50 (Equation 1)
T1 construct: TYK JH2 enzyme mix (ChemPartner: CP20210818A-BV); purchased ChemPartner CP20210818A-BV
T1 sequence (P29597 589-875 limits assumed): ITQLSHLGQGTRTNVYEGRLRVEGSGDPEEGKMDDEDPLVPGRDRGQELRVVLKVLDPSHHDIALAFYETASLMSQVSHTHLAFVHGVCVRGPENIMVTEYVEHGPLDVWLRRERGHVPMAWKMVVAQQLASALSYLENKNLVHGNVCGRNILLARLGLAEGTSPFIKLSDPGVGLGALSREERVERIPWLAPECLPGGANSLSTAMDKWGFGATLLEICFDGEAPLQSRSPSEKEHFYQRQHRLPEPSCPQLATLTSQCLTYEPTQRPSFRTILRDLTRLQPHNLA
Outline: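 HTRF competition binding: 0.5 nM His-tagged TYK2 JH2 preincubated 10 min at room temperature with compound (final 0.1 to 0.000005 μM), then 35 nM tracer and anti-6HIS Tb cryptate added for 60 min. Buffer 20 mM HEPES pH 7.5, 10 mM MgCl2, 0.01% Triton X-100, 1 mM DTT; TR-FRET Ex340/Em495/520. Ligand efficiency derived from binding IC50.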

[2] = Brain exposure pharmacokinetics in rats; assay type: in vivo; details: male Sprague Dawley rats, oral gavage 10 mg/kg
Description: The brain exposure of exemplary compounds, e.g., 1, 2, and 4 were evaluated in male Sprague Dawley rats after oral gavage administration at 10 mg/kg. The formulation was 5% DMSO+10% PEG400 in saline. Rats were fasted overnight with food returned 4 hours post-dose. CSF was collected by direct needle puncture into the cisterna magna.
(§1) For both rat and mouse studies, brain tissue was washed with 3 volumes of saline prior to homogenization. Brain tissue was homogenized with 3 volumes (v/w) of phosphate buffered saline. Plasma, brain homogenate, and CSF samples (rat only) were analyzed by LC-MS/MS and the concentration of test compound at each time point was determined by linear regression.
(§2) Pharmacokinetic parameters were calculated from the plasma, brain, and CSF concentrations by non-compartmental modeling using WinNonlin 8.2.

[3] = Brain exposure pharmacokinetics in mice; assay type: in vivo; details: male C57BL/6 mice, oral gavage 5 mg/kg
Description: The brain exposure of 18 was evaluated in male C57BL/6 mice after oral gavage administration at 5 mg/kg. The formulation was 10% DMSO+40% PEG400 in saline. Mice were provided free access to food and water without fasting. Terminal sample collection of plasma and brain tissue were collected at […], 0.25, 0.5, 1, 2, and 4 hours post-dose with n=3 at each timepoint.
as §1, §2

Row | SMILES | Half-life (t1/2) [1] | Maximum plasma concentration (Cmax) [1] | Total systemic exposure (AUCinf) [1] | IC50 (IL-6 induced pSTAT3) | IC50 (GM-CSF induced pSTAT5) | Ligand Efficiency (TYK2-JH2) | Brain Kpu, u [2] | Cellular selectivity (GM-CSF induced pSTAT5) (GM-CSF induced pSTAT5) | Brain Kpu, u [3]
1 | CS(=O)(=O)c1cccnc1Nc1cc(Nc2ccc3c(n2)CCCC3N2CC3(COC3)C2)ncn1 (stereo in doubt) [Compound 5, (R)—N^4-(5-(2-oxa-6-azaspiro[3.3]heptan-6-yl)-5,6,7,8-tetrahydroquinolin-2-yl)-N^6-(3-(methylsulfonyl)pyridin-2-yl)pyrimidine-4,6-diamine] | ††† (†††: >1.5) | ††† (†††: >1500) | ††† (†††: >2000) | 4 to 10 µM | > 10 µM | †† (††: 0.37-0.39) | – | – | –
2 | CC(c1ccc(Nc2cc(Nc3ncccc3S(C)(=O)=O)ncn2)nc1C(F)(F)F)N1CC2(COC2)C1 (stereo in doubt) [Compound 11, (R)—N^4-(5-(1-(2-oxa-6-azaspiro[3.3]heptan-6-yl)ethyl)-6-(trifluoromethyl)pyridin-2-yl)-N^6-(3-(methylsulfonyl)pyridin-2-yl)pyrimidine-4,6-diamine] | ††† (†††: >1.5) | †† (††: 800-1500) | ††† (†††: >2000) | < 4 µM | > 10 µM | †† (††: 0.37-0.39) | – | – | –
3 | Cc1nc(Nc2cc(Nc3ncccc3S(C)(=O)=O)ncn2)ccc1[C@H](C)N1CC2(COC2)C1 (stereo in doubt) [Compound 12, N^4-(5-(1-(2-oxa-6-azaspiro[3.3]heptan-6-yl)ethyl)-6-methylpyridin-2-yl)-N^6-(3-(methylsulfonyl)pyridin-2-yl)pyrimidine-4,6-diamine] | † (†: <1.0) | ††† (†††: >1500) | †† (††: 1000-2000) | < 4 µM | < 4 µM | ††† (†††: >0.39) | – | – | –
4 | C[C@@H](c1ccc(Nc2cc(Nc3ncccc3S(C)(=O)=O)ncn2)nc1)N(C)C [Compound 4, (S)—N^4-(5-(1-(dimethylamino)ethyl)pyridin-2-yl)-N^6-(3-(methylsulfonyl)pyridin-2-yl) pyrimidine-4,6-diamine] | – | – | – | – | – | ††† (†††: >0.39) | ††† (††† >0.2 u) | – | –
5 | C[C@H](c1ccc(Nc2cc(Nc3ncccc3S(C)(=O)=O)ncn2)nc1)N1CC2(COC2)C1 [Compound 17, (R)—N^4-(5-(1-(2-oxa-6-azaspiro[3.3]heptan-6-yl)ethyl)pyridin-2-yl)-N^6-(3-(methylsulfonyl)pyridin-2-yl)pyrimidine-4,6-diamine] | – | – | – | > 10 µM | – | †† (††: 0.37-0.39) | – | †††† | –
6 | Cc1cccc(Nc2cc(Nc3ncccc3S(C)(=O)=O)ncn2)n1 [Compound 18, N^4-(6-methylpyridin-2-yl)-N^6-(3-(methylsulfonyl)pyridin-2-yl) pyrimidine-4,6-diamine] | – | – | – | – | – | ††† (†††: >0.39) | – | – | ††† (††† >0.2 u)
